{"source": "paper PMC4523432", "about": "(Molecular oncology, 2015)", "target": "T1, Musashi-1 (MSI1) (Mus musculus, UniProt Q61474)", "T1 sequence (Q61474 20-107)": "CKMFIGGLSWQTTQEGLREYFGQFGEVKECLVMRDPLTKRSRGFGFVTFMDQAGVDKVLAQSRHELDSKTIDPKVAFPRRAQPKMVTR", "experiment": "SPR on immobilized GB1-RBD1, 1H-15N HSQC NMR titration", "format": "binding", "data": [{"molecule": "Cc1cc2c(C(C)C)c(O)c(O)c(C=O)c2c(O)c1-c1c(C)cc2c(C(C)C)c(O)c(O)c(C=O)c2c1O", "note": "[(–)-G, (–)-gossypol]", "values": [{"measurement": "Ki", "result": "476 ± 273", "unit": "nM"}]}]}
